Converted amounts (≈) assume the structure as drawn. “Also recorded” adds a separate entry of the source.
Experiments:
[1] = tested on: A549/VP29 (etoposide-resistant subline of A549) cells; assay: In vitro cytotoxicity (Table 14); settings: A549/VP29, 72 hours, neutral red
Protocol: (§2) After planting 180 μl of cell suspension into wells of a 96-well microtiter plate on day 0, the test materials (20 μl) were added on day 1 and the plates were incubated for 72 hours. The cytotoxic activity was colorimetrically determined at 540 nm after staining viable cells with neutral red solution.

[2] = tested on: A549 (human lung carcinoma) cells; assay: In vitro cytotoxicity (Table 14); format: cell-based; settings: A549, 72 h
Protocol: (§3) B16-F10 (murine melanoma), HCT-116 (human colon carcinoma), A549 (human lung carcinoma) and A549/VP29 (an etoposide-resistant subline of A549) were grown in Eagle's MEM (Nissui) supplemented with FCS (fetal calf serum, 10%) and non-essential amino acids (B16-F10), or in McCoy's 5A medium (Gibco) with FCS (10%), essential and non-essential amino acids, vitamins and antibiotics (HCT-116 and both of A549) at 37° C. under a humidified atmosphere in a 5% CO2 incubator. Exponentially growing B16-F10, HCT-116 and A549 cells were harvested, counted and suspended in the culture medium at 1.5×10^4, 3×10^4 and 3×10^4 cells/ml, respectively. After planting 180 μl of cell suspension into wells of a 96-well microtiter plate on day 0, the test materials (20 μl) were added on day 1 and the plates were incubated for 72 hours. The cytotoxic activity was colorimetrically determined at 540 nm after staining viable cells with neutral red solution.

Mucor spinosus IF05317 = assay: In vitro antifungal activity, serial agar dilution; settings: IF05317, 40 h, pH 7
Protocol: (§4) In vitro antifungal activity was determined against various fungi by the serial agar dilution method. Sabouraud dextrose agar (pH 7.0) was used for the experiment. The inoculum size was adjusted to 10^6 CFU/ml. After incubation at 28° C. for 40 hours, the minimum inhibitory concentration (MIC) was examined.

[3] = tested on: Fusarium moniliforme A2284; assay: In vitro antifungal activity, serial agar dilution; settings: Fusarium verticillioides, A2284, 40 h, pH 7
Protocol: as §4

[4] = tested on: DNA biosynthesis in L1210 leukemia cells; assay: Inhibition of macromolecule biosynthesis, DNA (Table 15); format: cell-based, murine; settings: at 100 μg/ml, the highest concentration tested
Protocol: (§1) Inhibitory effects of the above compounds on macromolecule (DNA, RNA and protein) biosynthesis were determined in cultured L1210 murine leukemia cells. The cells (5×10^5 cells/ml) were incubated with the test materials at 37° C. for 15 minutes and then further incubated for 60 minutes after the addition of labeled precursor, ^3 H-thymidine, ^14 C-uridine or ^3 H-leucine into the cultured mixture. After washing with chilled 5% trichloroacetic acid solution, the radioactivity incorporated into the acid-insoluble fraction of the cells was determined with a liquid scintillation counter.

A. fumigatus IAM2034 = assay: microbe, parasite or virus in culture; settings: Aspergillus fumigatus, IAM2034, 40 h, pH 7
Protocol: as §4

Solubility = format: physicochemical
P388 leukemia = assay: In vivo antitumor activity against P388 leukemia (Table 8); settings: for Body wt. change on day 4 / MST (median survival time) / T/C: Q1D × 3
[5] = tested on: murine and human tumor cell lines; assay: In vitro cytotoxicity, overall statement
Protocol: as §2

L1210 leukemia = assay: In vivo antitumor activity against L1210 leukemia (Table 9); settings: for Body wt. change on day 6 / MST (median survival time) / T/C: Q1D × 3
[6] = tested on: B16-F10 (murine melanoma) cells; assay: In vitro cytotoxicity (Table 14); format: cell-based; settings: Mus musculus, B16-F10, 72 h
Protocol: as §3

[7] = tested on: RNA biosynthesis in L1210 leukemia cells; assay: Inhibition of macromolecule biosynthesis, RNA (Table 7); format: cell-based, murine; settings: Mus musculus, labelled precursor, 15 min + 60 min, 37° C., read-out: IC50, RNA synthesis
Protocol: as §1, with “of BU-3285T” for “of the above compounds”, “macromolecule biosynthesis” for “macromolecule”, “protein)” for “protein) biosynthesis”, “the compound” for “the test materials”, “of labelled” for “of labeled”, “determined by” for “determined with”

Piricularia oryzae D91 = assay: microbe, parasite or virus in culture; format: cell-based; settings: 40 h, pH 7
[8] = tested on: protein biosynthesis in L1210 leukemia cells; assay: Inhibition of macromolecule biosynthesis, protein (Table 7); format: cell-based, murine
Protocol: as §1, with “of BU-3285T” for “of the above compounds”, “macromolecule biosynthesis” for “macromolecule”, “protein)” for “protein) biosynthesis”, “the compound” for “the test materials”, “of labelled” for “of labeled”, “determined by” for “determined with”

C. neoformans IAM4514 = assay: In vitro antifungal activity, serial agar dilution; settings: Cryptococcus neoformans, IAM4514, 40 h, pH 7
Protocol: as §4

T. mentagrophytes #4329 = assay: In vitro antifungal activity, serial agar dilution; settings: Trichophyton mentagrophytes, 40 h, pH 7
Protocol: as §4

[9] = tested on: Petriellidium boydii IF08078; assay: In vitro antifungal activity, serial agar dilution; settings: Scedosporium boydii, IF08078, 40 h, pH 7
Protocol: as §4

[10] = tested on: HCT-116 (human colon carcinoma) cells; assay: In vitro cytotoxicity (Table 14); format: cell-based; settings: HCT-116, 72 h
Protocol: as §3

[11] = 0.1 mg/kg/day ip, significant if T/C ≥ 125%
[12] = 0.3 mg/kg/day ip, *2 significant, T/C ≥ 125%
[13] = 1 mg/kg/day ip, *2 significant, T/C ≥ 125%
[14] = 3 mg/kg/day ip, *2 significant, T/C ≥ 125%
[15] = 10 mg/kg/day ip, *2 significant, T/C ≥ 125%

## CCCCC/C=C/C=C\C=C/C(O)C(C)C(C/C=C/C1OC(=O)C=CC1O)OS(=O)(=O)O (stereo not drawn) [BU-3285T]
[1]
  IC50: 17 µg/mL (≈ 36.1 µM)
[2]
  IC50: 4.1 µg/mL (≈ 8.71 µM)
Mucor spinosus IF05317
  MIC: 25 µg/mL (≈ 53.1 µM)
[3]
  MIC: 25 µg/mL (≈ 53.1 µM)
[4]
  inhibitory effect on DNA synthesis: no significant inhibitory effect
A. fumigatus IAM2034
  MIC: > 100 µg/mL
Solubility; acetone
  solubility in acetone: slightly soluble
Solubility; chloroform
  solubility in chloroform: insoluble
Solubility; dimethyl sulfoxide
  solubility in dimethyl sulfoxide: soluble
Solubility; ethanol
  solubility in ethanol: soluble
Solubility; ethyl acetate
  solubility in ethyl acetate: slightly soluble
Solubility; methanol
  solubility in methanol: soluble
Solubility; n-hexane
  solubility in n-hexane: insoluble
Solubility; water
  solubility in water: soluble
P388 leukemia; 0.1 mg/kg/day ip
  Body wt. change on day 4: +1.5 g
  MST (median survival time): 12.0 days
P388 leukemia; [11]
  T/C: 120%
P388 leukemia; 0.3 mg/kg/day ip
  Body wt. change on day 4: +1.0 g
  MST (median survival time): 13.0 days
P388 leukemia; [12]
  T/C: 130%
P388 leukemia; 1 mg/kg/day ip
  Body wt. change on day 4: +1.0 g
  MST (median survival time): 14.0 days
P388 leukemia; [13]
  T/C: 140%
P388 leukemia; 3 mg/kg/day ip
  Body wt. change on day 4: +1.5 g
  MST (median survival time): 15.0 days
P388 leukemia; [14]
  T/C: 150%
P388 leukemia; 10 mg/kg/day ip
  Body wt. change on day 4: 0.0 g
  MST (median survival time): 16.0 days
P388 leukemia; [15]
  T/C: 160%
P388 leukemia; P388, in terms of minimum effective dose
  activity compared with mitomycin C: comparable
P388 leukemia; P388 leukemia in mice
  in vivo antitumor activity: potent in vivo inhibitory activity; also recorded: good antitumor activity
[5]; murine and human tumor cell lines
  cytotoxicity in vitro: exhibits in vitro antifungal activity and cytotoxicity; also recorded: quite active
[5]; range over cell lines of Table 14
  IC50 values against the murine and human tumor cell lines (range): 1.9 to 38 µg/mL
L1210 leukemia; 0.1 mg/kg/day ip
  Body wt. change on day 6: +2.3 g
  MST (median survival time): 8.0 days
L1210 leukemia; [11]
  T/C: 114%
L1210 leukemia; 0.3 mg/kg/day ip
  Body wt. change on day 6: +2.5 g
  MST (median survival time): 8.0 days
L1210 leukemia; [12]
  T/C: 114%
L1210 leukemia; 1 mg/kg/day ip
  Body wt. change on day 6: +1.5 g
  MST (median survival time): 9.0 days
L1210 leukemia; [13]
  T/C: 129%
L1210 leukemia; 3 mg/kg/day ip
  Body wt. change on day 6: +1.5 g
  MST (median survival time): 9.0 days
L1210 leukemia; [14]
  T/C: 129%
L1210 leukemia; 10 mg/kg/day ip
  Body wt. change on day 6: 0.0 g
  MST (median survival time): 10.5 days
L1210 leukemia; [15]
  T/C: 150%
L1210 leukemia; L1210, in terms of minimum effective dose
  activity compared with mitomycin C: somewhat weaker
L1210 leukemia; L1210 leukemia in mice
  in vivo antitumor activity: potent in vivo inhibitory activity; also recorded: good antitumor activity
[6]
  IC50: 38 µg/mL (≈ 80.8 µM)
[7]
  IC50: 14.4 µg/mL
Piricularia oryzae D91
  MIC: 50 µg/mL (≈ 106 µM)
[8]; L-1210 leukemia cells
  inhibition of protein synthesis (specificity): specific inhibitor of protein synthesis
[8]; Mus musculus, L1210, labelled precursor, 15 min + 60 min, 37° C., read-out: IC50, protein synthesis
  IC50: 0.78 µg/mL
[8]; protein vs RNA synthesis, L1210 cells
  inhibition of protein synthesis stronger than RNA synthesis: 18 times
C. neoformans IAM4514
  MIC: 1.6 µg/mL (≈ 3.4 µM)
T. mentagrophytes #4329
  MIC: 12.5 µg/mL (≈ 26.6 µM)
[9]
  MIC: 0.8 µg/mL (≈ 1.7 µM)
[10]
  IC50: 1.9 µg/mL (≈ 4.04 µM)
